Measurements reported in patent US5593985A, “Cephalosporin compounds” (priority 1994, dated 1997).
Converted amounts (≈) assume the structure as drawn.

How the values were obtained:
[1] = test system: Enterobacter cloacae P 99; assay: MIC, standard strain 19; assay type: cell-based; conditions: P99, 18 h, read-out: Minimal Inhibitory Concentration(MIC)
Protocol: (§1) In order to illustrate antibiotic effectiveness of the compounds of the present invention, the minimal inhibitory concentrations (MIC's) of the representative compounds were determined against standard strains and compared with ceftazidime and cefpirome, which were used as control compounds.
(§2) The MIC values were taken by employing a two-fold dilution method: that is, two-fold serial dilutions of each of the test compounds were made from initial concentration of […]; each 1.5 ml of them was dispersed in 13.5 ml of Muller Hinton agar medium to adjust to […]; the standard test strain which had the concentration of 10^7 CFU/ml was inoculated by medium;and these were incubated at 37° C. for 18 hours.
(§3) The test used twenty kinds of standard test strains which induced urinary tract infections, respiratory organ infections, skin soft tissue infections, plasma infections, gastrointestinal infections, central nervous system infections, most of which produce β-lactamase. The standard test strains used are as follows:
19. Enterobacter cloacae P 99

Escherichia coli TEM = assay: MIC, standard strain 10; assay type: cell-based; conditions: 18 h, read-out: Minimal Inhibitory Concentration(MIC)
Protocol: as §1, §2
(§4) The test used twenty kinds of standard test strains which induced urinary tract infections, respiratory organ infections, skin soft tissue infections, plasma infections, gastrointestinal infections, central nervous system infections, most of which produce β-lactamase.

[2] = test system: Enterobacter cloacae 1321 E; assay: MIC, standard strain 20; assay type: cell-based; conditions: E. cloacae 1321 E, two-fold dilution, Muller Hinton agar, 10^7 CFU/ml, 37° C., 18 hours, read-out: Minimal Inhibitory Concentration(MIC)
Protocol: as §1, §2, §3
20. Enterobacter cloacae 1321 E

Escherichia coli 0 55 = assay: MIC, standard strain 7; assay type: cell-based; conditions: 055, E. coli 0 55, two-fold dilution, Muller Hinton agar, 10^7 CFU/ml, 37° C., 18 hours, read-out: Minimal Inhibitory Concentration(MIC)
Protocol: as §1, §2, §4

acute toxicity test = conditions: in vivo, iv
[3] = test system: Staphylococcus aureus 285; assay: MIC, standard strain 5; assay type: cell-based; conditions: Staphylococcus aureus; S. aureus 285; two-fold dilution, Muller Hinton agar, 10^7 CFU/ml, 37° C., 18 hours; read-out: Minimal Inhibitory Concentration(MIC)
Protocol: as §1, §2, §3
5. Staphylococcus aureus 285

Escherichia coli DC 2 = assay: MIC, standard strain 9; assay type: cell-based; conditions: DC2, E. coli DC 2, two-fold dilution, Muller Hinton agar, 10^7 CFU/ml, 37° C., 18 hours, read-out: Minimal Inhibitory Concentration(MIC)
Protocol: as §1, §2, §4

[4] = test system: Streptococcus pyogenes A 77; assay: MIC, standard strain 2; assay type: cell-based; conditions: A77, S. pyogenes A 77, two-fold dilution, Muller Hinton agar, 10^7 CFU/ml, 37° C., 18 hours, read-out: Minimal Inhibitory Concentration(MIC)
Protocol: as §1, §2, §3
2. Streptococcus pyogenes A 77

Escherichia coli 1507 E = assay: MIC, standard strain 11; assay type: cell-based; conditions: E. coli 1507 E, two-fold dilution, Muller Hinton agar, 10^7 CFU/ml, 37° C., 18 hours, read-out: Minimal Inhibitory Concentration(MIC)
Protocol: as §1, §2, §4

Salmonella typhimurium = assay: MIC, standard strain 16; assay type: cell-based; conditions: Salmonella enterica; S. typhimurium; two-fold dilution, Muller Hinton agar, 10^7 CFU/ml, 37° C., 18 hours; read-out: Minimal Inhibitory Concentration(MIC)
Protocol: as §1, §2, §3
16. Salmonella typhimurium

[5] = test system: Streptococcus pyogens A77; assay: antibiotic activity against systemic infection in mice; assay type: in vivo; conditions: A77, im, bacteria intraperitoneally, intramuscular injection, 5 to 0.078 mg/kg, probit method (confidence limit), read-out: PD50
Protocol: In order to illustrate clinical effectiveness of the compounds of the present invention more specifically, the stability to β-lactamase and antibiotic activity against systemic infection, were tested, and the results are shown in Table 4 and 5, respectively.
Antibiotic activity against systematic infection was tested by using mice: that is, 0.3 ml of a strain solution containing fatal dose of bacteria in 0.3 ml was administered to mice intraperitoneally; and then, the test antibiotics were administered intramuscularly in an amount of 5 to 0.078 mg/kg. PD50 was calculated by probit method.

MRSA(Yonsei Univ.) = assay: MIC, clinically separated strains; assay type: cell-based; design: range of MIC: unit not given here
Protocol: as §2

Streptococcus I = assay: MIC, clinically separated strains; assay type: cell-based; design: range of MIC: unit not given here; conditions: 20 clinical strains; for MIC50 / MIC90: Streptococcus, 18 h
Protocol: as §2

[6] = test system: Staphylococcus aureus 503; assay: MIC, standard strain 6; assay type: cell-based; conditions: Staphylococcus aureus; S. aureus 503; two-fold dilution, Muller Hinton agar, 10^7 CFU/ml, 37° C., 18 hours; read-out: Minimal Inhibitory Concentration(MIC)
Protocol: as §1, §2, §3
6. Staphylococcus aureus 503

[7] = test system: Pseudomonas aeruginosa 1592 E; assay: MIC, standard strain 13; assay type: cell-based; conditions: P. aeruginosa 1592 E, two-fold dilution, Muller Hinton agar, 10^7 CFU/ml, 37° C., 18 hours, read-out: Minimal Inhibitory Concentration(MIC)
Protocol: as §1, §2, §3
13. Pseudomonas aeruginosa 1592 E

[8] = test system: Klebsiella aerogenes 1552 E; assay: MIC, standard strain 18; assay type: cell-based; conditions: K. aerogenes 1552 E, two-fold dilution, Muller Hinton agar, 10^7 CFU/ml, 37° C., 18 hours, read-out: Minimal Inhibitory Concentration(MIC)
Protocol: as §1, §2, §3
18. Klebsiella aerogenes 1552 E

Pseudomonas = conditions: compared with DQ-2556 or ceftazidime; cited from earlier work
[9] = test system: Gram-negative and Gram-positive bacteria; conditions: cited from earlier work
[10] = Staphylococcus aureus, MRSA, 18 h, 17 clinical strains

CO/N=C(\C(=O)N[C@@H]1C(=O)N2C(C(=O)[O-])=C(C[n+]3ccc(C(N)=O)c4c3CCC4)CS[C@H]12)c1csc(N)n1 [Example 3]
MIC [1]: 3120 µg/mL (≈ 5600 µM)
MIC (Escherichia coli TEM): 49 µg/mL (≈ 87.9 µM)
MIC [2]: 7 µg/mL (≈ 12.6 µM)
MIC (Escherichia coli 0 55): 31 µg/mL (≈ 55.6 µM)
LD50 (acute toxicity test): > 3000 mg/kg
MIC [3]: 781 µg/mL (≈ 1400 µM)
MIC (Escherichia coli DC 2): 25 µg/mL (≈ 44.8 µM)
MIC [4]: 2 µg/mL (≈ 3.59 µM)
MIC (Escherichia coli 1507 E): 25 µg/mL (≈ 44.8 µM)
MIC (Salmonella typhimurium): 25 µg/mL (≈ 44.8 µM)
ED50 [5]: 0.29 mg/kg
antibiotic activities against MRSA(Yonsei Univ.), in words (MRSA(Yonsei Univ.)): unexpectedly potent antibiotic activities
range of MIC (MRSA(Yonsei Univ.); 17 clinical strains): 0.013-100.000
MIC50 (MRSA(Yonsei Univ.); [10]): 12.5 µg/mL (≈ 22.4 µM)
MIC90 (MRSA(Yonsei Univ.); [10]): 100 µg/mL (≈ 179 µM)
range of MIC (Streptococcus I): 0.007-25.000
MIC50 (Streptococcus I): 0.025 µg/mL (≈ 0.0448 µM)
MIC90 (Streptococcus I): 12.5 µg/mL (≈ 22.4 µM)
MIC [6]: 391 µg/mL (≈ 701 µM)
MIC [7]: 1560 µg/mL (≈ 2800 µM)
MIC [8]: 25 µg/mL (≈ 44.8 µM)

CO/N=C(\C(=O)N[C@@H]1C(=O)N2C(C(=O)[O-])=C(C[n+]3cccc4c3CCC4)CS[C@H]12)c1csc(N)n1 [cefpirome, reference compound]
MIC [1]: 3120 µg/mL (≈ 6070 µM)
MIC (Escherichia coli TEM): 49 µg/mL (≈ 95.2 µM)
MIC [2]: 13 µg/mL (≈ 25.3 µM)
MIC (Escherichia coli 0 55): 13 µg/mL (≈ 25.3 µM)
activity against Pseudomonas, in words (Pseudomonas): inferior to ceftazidime
MIC [3]: 781 µg/mL (≈ 1520 µM)
MIC (Escherichia coli DC 2): 49 µg/mL (≈ 95.2 µM)
MIC [4]: 98 µg/mL (≈ 190 µM)
MIC (Escherichia coli 1507 E): 75 µg/mL (≈ 146 µM)
activity against Gram-negative and Gram-positive bacteria, in words [9]: improved activity against Gram-negative and Gram-positive bacteria
MIC (Salmonella typhimurium): 25 µg/mL (≈ 48.6 µM)
antibiotic activities against MRSA(Yonsei Univ.), in words (MRSA(Yonsei Univ.)): shows resistance to cefpirome
MIC (MRSA(Yonsei Univ.); Staphylococcus aureus, MRSA, 18 h, read-out: range of MIC, 17 clinical strains): 100 µg/mL (≈ 194 µM)
MIC50 (MRSA(Yonsei Univ.); [10]): 100 µg/mL (≈ 194 µM)
MIC90 (MRSA(Yonsei Univ.); [10]): 100 µg/mL (≈ 194 µM)
MIC50 (Streptococcus I): 0.025 µg/mL (≈ 0.0486 µM)
MIC90 (Streptococcus I): 12.5 µg/mL (≈ 24.3 µM)
MIC [6]: 13 µg/mL (≈ 25.3 µM)
MIC [7]: 1560 µg/mL (≈ 3040 µM)
MIC [8]: 25 µg/mL (≈ 48.6 µM)
